Assay results as given in patent publication US8299070B2, “Indole compounds and pharmaceutical use thereof” (Japan Tobacco Inc., priority 2009, dated 2012).

Molecular target: T1, hITK enzyme (FLAG-tagged full-length hITK) (Homo sapiens, UniProt Q08881)
T1 construct: strongly expressing FLAG-tagged full-length hITK in Sf9 cells; FLAG; made in house; host or cells: Sf9 insect cells (ITK); Escherichia coli (GST-SLP76 substrate)
T1 sequence (Q08881 1-620): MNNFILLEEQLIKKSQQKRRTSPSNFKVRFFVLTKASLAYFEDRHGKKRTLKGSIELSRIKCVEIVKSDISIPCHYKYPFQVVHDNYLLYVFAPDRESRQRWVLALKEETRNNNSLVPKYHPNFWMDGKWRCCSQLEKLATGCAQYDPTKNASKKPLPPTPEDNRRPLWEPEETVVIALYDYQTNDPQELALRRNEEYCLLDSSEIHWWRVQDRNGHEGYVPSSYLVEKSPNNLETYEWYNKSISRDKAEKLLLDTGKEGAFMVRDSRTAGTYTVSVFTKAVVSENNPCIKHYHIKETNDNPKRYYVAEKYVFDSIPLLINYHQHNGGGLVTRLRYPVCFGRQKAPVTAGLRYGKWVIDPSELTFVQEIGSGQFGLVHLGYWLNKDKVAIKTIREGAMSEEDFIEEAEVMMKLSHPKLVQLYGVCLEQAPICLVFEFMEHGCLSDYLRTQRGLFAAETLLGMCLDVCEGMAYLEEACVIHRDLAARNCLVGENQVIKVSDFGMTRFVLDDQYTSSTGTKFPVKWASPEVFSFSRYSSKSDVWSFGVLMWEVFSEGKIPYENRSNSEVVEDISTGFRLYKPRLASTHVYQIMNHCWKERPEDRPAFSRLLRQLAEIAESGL
Assay: ITK inhibitory activity (HTRF kinase assay, biotinylated GST-SLP76 substrate)
Assay type: biochemical
Conditions: IC50 calculated from the 2 test compound concentrations sandwiching 50% ITK inhibitory rate
Description: (1) Preparation of hITK Enzyme
hITK enzyme was prepared by strongly expressing FLAG-tagged full-length hITK in Sf9 cells, and purifying same by anti-FLAG antibody column.
(2) Preparation of biotinylated GST-SLP76
Biotinylated GST-SLP76 was prepared by strongly expressing GST-tagged SLP76 (aa95-175) in Escherichia coli, purifying same by glutathion sepharose column and biotinylating same.
(3) Preparation of Solution
(i) buffer for dilution: 20 mmol/L 3-(N-morpholino)propanesulfonic acid (pH 7.0) (DOJINDO LABORATORIES), 10 mmol/L magnesium chloride (Sigma-Aldrich Corporation), 1 mmol/L dithiothreitol (Nacalai Tesque, Inc.), 0.1% gelatin (Sigma-Aldrich Corporation)
(ii) substrate solution: 0.2 μg/mL biotinylated GST-SLP76, 100 μmol/L ATP (Sigma-Aldrich Corporation), prepared with buffer for dilution
(iii) test compound solution: test compound, 50% dimethyl sulfoxide (DMSO), prepared with buffer for dilution
(iv) enzyme solution: 50 ng/mL hITK enzyme, prepared with buffer for dilution
(v) control solution: solution after removal of test compound from the mixture of the above-mentioned (i), (ii) and (iii)
(vi) blank solution: solution after removal of ATP from the mixture of the above-mentioned (i), (ii) and (iii)
(vii) detection buffer: 0.1 μg/mL Anti-Phosphotyrosine (PT66)-Cryptate (Cisbio), 2.5 μg/mL streptavidin-binding XL665 (Cisbio), 50 mmol/L 4-(2-hydroxyethyl)-1-piperazineethanesulfonic acid (pH 7.4) (Nacalai Tesque, Inc.), 30 mmol/L EDTA (NipponGene), 0.1% TritonX (Sigma-Aldrich Corporation), 200 mmol/L potassium fluoride (Wako Pure Chemical Industries, Ltd.), 0.05% bovine serum albumin (Sigma-Aldrich Corporation) (4) Measurement of ITK Inhibitory Activity
A substrate solution (25 μL/well), a test compound solution (5 μL/well) and an enzyme solution (20 μL/well) were added into 96 well half-area white plate (plate, Corning Incorporated 3642) to start a kinase reaction. The plate was stood still at room temperature for 10 min. Then, a detection buffer (50 μL/well) was added to the plate. After 2 hr from the addition of the detection buffer, fluorescence intensity at 620 nm (excited at 337 nm), and fluorescence intensity at 665 nm ([…]) were measured by a fluorescence microplate reader.
The Ratio (fluorescence intensity at 665 nm/fluorescence intensity at 620 nm×10000) of each test compound was calculated from the measured fluorescence intensity. Simultaneously, the measurement was performed using a blank solution and a control solution, and % of control value of each test compound was calculated from the following formula. % of control=(Ratio of test compound−Ratio of blank)/(Ratio of control−Ratio of blank)×100 ITK inhibitory rate (%)=100−(% of control)
The IC50 value was calculated from the test compound concentrations at 2 points sandwiching 50% ITK inhibitory rate.
In the test for the compounds of Examples 380 and 381, the ATP concentration of the substrate solutions was 6 μmol/L.

Compound | IC50
C[C@H](C(=O)N(C)c1ccc2cc(-c3n[nH]c4c3CCC(C)(C)C4)[nH]c2c1)N1CCOCC1 [Example 135] | 6 nM
CCN(C)C(=O)c1ccc2[nH]c(-c3n[nH]c4c3CCC(C)(C)C4)cc2c1 [Example 331] | 60 nM
CC1CCN(CC(=O)N(CCO)c2ccc3cc(-c4n[nH]c5c4CCC(C)(C)C5)[nH]c3c2)C1=O (stereo not drawn) [Example 257] | 1 nM
CC1(C)CCc2c(-c3cc4ccc(N(CCO)C(=O)C5CCOCC5)cc4[nH]3)n[nH]c2C1 [Example 236] | 6 nM
CN(C(=O)C(=O)c1ccccc1)c1ccc2cc(-c3n[nH]c4c3CCC(C)(C)C4)[nH]c2c1 [Example 57] | 17 nM
CC1(C)CCc2c(-c3cc4cc(C(=O)N5CCCC5)ccc4[nH]3)n[nH]c2C1 [Example 332] | 46 nM
COCCN(c1ccc2cc(-c3n[nH]c4c3CCC(C)(C)C4)[nH]c2c1)C(=O)[C@H]1CC[C@@H](O)CC1 [Example 259] | 3 nM
CCC(=O)N(C)c1ccc2cc(-c3n[nH]c4c3CC(OC(C)C)CC4)[nH]c2c1 (stereo not drawn) [Example 371] | 112 nM
CCC(=O)N(CCO)c1ccc2cc(-c3n[nH]c4c3CCC(C)(C)C4)[nH]c2c1 [Example 209] | 4 nM
CCC(=O)N(C)c1ccc2cc(-c3n[nH]c4c3CC(OCc3ccccc3)C(C)(C)C4)[nH]c2c1 (stereo not drawn) [Example 364] | 45 nM
CN(C)CCN(C(=O)CC1CCOCC1)c1ccc2cc(-c3n[nH]c4c3CCC(C)(C)C4)[nH]c2c1 [Example 221] | 3 nM
CN(Cc1ccccc1)C(=O)c1ccc2[nH]c(-c3n[nH]c4c3CCC(C)(C)C4)cc2c1 [Example 314] | 143 nM
CCN(C(=O)[C@H](C)N1CCOCC1)c1ccc2cc(-c3n[nH]c4c3CCC(C)(C)C4)[nH]c2c1 [Example 275] | 2 nM
CN(C(=O)COc1ccncc1)c1ccc2cc(-c3n[nH]c4c3CCC(C)(C)C4)[nH]c2c1 [Example 73] | < 3 nM
CC(C(=O)N(C)c1ccc2cc(-c3n[nH]c4c3CCC(C)(C)C4)[nH]c2c1)N1CCOC(O)C1 (stereo not drawn) [Example 378] | 2 nM
COCCN(C(=O)CN1C[C@@H](C)OCC1=O)c1ccc2cc(-c3n[nH]c4c3CCC(C)(C)C4)[nH]c2c1 [Example 283] | 2 nM
CC1(C)CCc2c(-c3cc4cc(NC(=O)c5ccccc5)ccc4[nH]3)n[nH]c2C1 [Example 344] | 278 nM
CCN(C(=O)CN1CCCCC1=O)c1ccc2cc(-c3n[nH]c4c3CCC(C)(C)C4)[nH]c2c1 [Example 289] | < 1 nM
CC1(C)CCc2c(-c3cc4cc(C(=O)N5CCCCC5)ccc4[nH]3)n[nH]c2C1 [Example 333] | 106 nM
CC1COCCN1C(C)C(=O)N(C)c1ccc2cc(-c3n[nH]c4c3CCC(C)(C)C4)[nH]c2c1 (stereo not drawn) [Example 146] | 11 nM
COCC(C(C)C)N(C)C(=O)c1ccc2cc(-c3n[nH]c4c3CCC(C)(C)C4)[nH]c2c1 (stereo not drawn) [Example 26] | 85 nM
CC(C(=O)N(CCO)c1ccc2cc(-c3n[nH]c4c3CCC(C)(C)C4)[nH]c2c1)C1CCCCC1 (stereo not drawn) [Example 241] | 23 nM
COCC(=O)N(C)c1ccc2cc(-c3n[nH]c4c3CC[C@@H](C)C4)[nH]c2c1 [Example 353] | 16 nM
COCCN(C(=O)CC1CCOCC1)c1ccc2cc(-c3n[nH]c4c3CCC(C)(C)C4)[nH]c2c1 [Example 269] | 6 nM
CCC(=O)N(C)c1ccc2cc(-c3n[nH]c4c3CC(O)CC4)[nH]c2c1 (stereo not drawn) [Example 365] | 45 nM
COC(C)(C)C(=O)N(C)c1ccc2cc(-c3n[nH]c4c3CCC(C)(C)C4)[nH]c2c1 [Example 42] | 22 nM
COCCN(C(=O)CN1C(=O)COC[C@H]1C)c1ccc2cc(-c3n[nH]c4c3CCC(C)(C)C4)[nH]c2c1 [Example 262] | 3 nM
CC1(C)CCc2c(-c3cc4ccc(N(CCO)C(=O)C5CCCO5)cc4[nH]3)n[nH]c2C1 (stereo not drawn) [Example 237] | 2 nM

Now from value to molecule:

IC50 | Compound
2 nM | CO[C@H]1CC[C@@H](C(=O)N(C)CC(=O)N(C)c2ccc3cc(-c4n[nH]c5c4CCC(C)(C)C5)[nH]c3c2)CC1 [Example 194]
4 nM | CC(C)C(=O)N(C)c1ccc2cc(-c3n[nH]c4c3CCC(C)(C)C4)[nH]c2c1 [Example 39]
1 nM | CC(=O)N1CCC[C@@H]1C(=O)N(C)c1ccc2cc(-c3n[nH]c4c3CCC(C)(C)C4)[nH]c2c1 [Example 166]
25 nM | CN(C(=O)C(O)COC1CCCC1)c1ccc2cc(-c3n[nH]c4c3CCC(C)(C)C4)[nH]c2c1 (stereo not drawn) [Example 131]
2 nM | CN(C(=O)CN1CCOC1=O)c1ccc2cc(-c3n[nH]c4c3CCC(C)(C)C4)[nH]c2c1 [Example 154]
< 3 nM | CN(c1ccc2cc(-c3n[nH]c4c3CCC(C)(C)C4)[nH]c2c1)C(=O)[C@H]1CC[C@@H](O)CC1 [Example 84]
2 nM | CC1CCCC(=O)N1CC(=O)N(C)c1ccc2cc(-c3n[nH]c4c3CCC(C)(C)C4)[nH]c2c1 (stereo not drawn) [Example 137]
< 3 nM | CN(C)CCN(C(=O)C1CCCO1)c1ccc2cc(-c3n[nH]c4c3CCC(C)(C)C4)[nH]c2c1 (stereo not drawn) [Example 220]
3 nM | CN(C(=O)CN1CCCS1(=O)=O)c1ccc2cc(-c3n[nH]c4c3CCC(C)(C)C4)[nH]c2c1 [Example 138]
6 nM | CN(C(=O)[C@H](O)C1CCCCC1)c1ccc2cc(-c3n[nH]c4c3CCC(C)(C)C4)[nH]c2c1 [Example 77]
11 nM | CN(C(=O)C1CCCC1)c1ccc2cc(-c3n[nH]c4c3CCC(C)(C)C4)[nH]c2c1 [Example 33]
< 3 nM | CN(C(=O)C1CCCO1)c1ccc2cc(-c3n[nH]c4c3CCC(C)(C)C4)[nH]c2c1 (stereo not drawn) [Example 52]
1 nM | CN(C(=O)CN1CCCCCC1=O)c1ccc2cc(-c3n[nH]c4c3CCC(C)(C)C4)[nH]c2c1 [Example 127]
5 nM | CN(C(=O)C(CO)OC1CCCC1)c1ccc2cc(-c3n[nH]c4c3CCC(C)(C)C4)[nH]c2c1 (stereo not drawn) [Example 158]
4 nM | CC(C)C(O)C(=O)N(C)c1ccc2cc(-c3n[nH]c4c3CCC(C)(C)C4)[nH]c2c1 (stereo not drawn) [Example 67]
1 nM | CN(CC(=O)N(C)c1ccc2cc(-c3n[nH]c4c3CCC(C)(C)C4)[nH]c2c1)C(=O)C1CC1 [Example 200]
12 nM | CCC(=O)N(C)[C@@H](C)C(=O)N(C)c1ccc2cc(-c3n[nH]c4c3CCC(C)(C)C4)[nH]c2c1 [Example 203]
< 3 nM | CCCOCC(=O)N(C)c1ccc2cc(-c3n[nH]c4c3CCC(C)(C)C4)[nH]c2c1 [Example 55]
9 nM | CN(C(=O)CC1CCCCC1)c1ccc2cc(-c3n[nH]c4c3CCC(C)(C)C4)[nH]c2c1 [Example 72]
2 nM | CC1COCC(=O)N1CC(=O)N(C)c1ccc2cc(-c3n[nH]c4c3CCC(C)(C)C4)[nH]c2c1 (stereo not drawn) [Example 130]
1 nM | CN(C(=O)CN1CC(C)(C)CC1=O)c1ccc2cc(-c3n[nH]c4c3CCC(C)(C)C4)[nH]c2c1 [Example 163]
2 nM | C[C@@H]1CN(CC(=O)N(C)c2ccc3cc(-c4n[nH]c5c4CCC(C)(C)C5)[nH]c3c2)C(=O)CO1 [Example 182]
3 nM | CC(C(=O)N(C)c1ccc2cc(-c3n[nH]c4c3CCC(C)(C)C4)[nH]c2c1)C1CCOCC1 (stereo not drawn) [Example 98]
